Data from the supplement of paper PMC10307832.

Assays:
Assay in all cases: relative viability (nuclei count vs DMSO), 5 days (fraction); higher = more cells survive
[1] = compound: CN(C)C[C@@H]1CCn2cc(c3ccccc32)C2=C(C(=O)NC2=O)c2cn(c3ccccc23)CCO1 [Ruboxistaurin] + CS(=O)(=O)CCNCc1ccc(-c2ccc3ncnc(Nc4ccc(OCc5cccc(F)c5)c(Cl)c4)c3c2)o1 [Lapatinib] (partner 2 µM)
Method in brief: (§1)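 Relative viability equals treated-well nuclei counts divided by vehicle-well nuclei counts. Counts came from 4× images of lung cancer cell lines grown in 1536-well plates for 5 days after pin-tool dosing on the day after seeding. Dosing used one drug alone or a fixed anchor-drug dose plus five library-drug doses (not always all listed) in √10 steps, and values are medians of duplicate plates.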

Ruboxistaurin + AZD7762 = compound: CN(C)C[C@@H]1CCn2cc(c3ccccc32)C2=C(C(=O)NC2=O)c2cn(c3ccccc23)CCO1 [Ruboxistaurin] + NC(=O)Nc1cc(-c2cccc(F)c2)sc1C(=O)N[C@H]1CCCNC1 [AZD7762] (partner 0.2 µM)
Method in brief: as §1

[2] = compound: CN(C)C[C@@H]1CCn2cc(c3ccccc32)C2=C(C(=O)NC2=O)c2cn(c3ccccc23)CCO1 [Ruboxistaurin] + Cc1nc(NC(=O)N2CCC[C@H]2C(N)=O)sc1-c1ccnc(C(C)(C)C(F)(F)F)c1 [Alpelisib] (partner 2 µM)
Method in brief: as §1

[3] = compound: CN(C)C[C@@H]1CCn2cc(c3ccccc32)C2=C(C(=O)NC2=O)c2cn(c3ccccc23)CCO1 [Ruboxistaurin] + Cc1nc(Nc2ncc(C(=O)Nc3c(C)cccc3Cl)s2)cc(N2CCN(CCO)CC2)n1 [Dasatinib] (partner 0.075 µM)
Method in brief: as §1

[4] = compound: CN(C)C[C@@H]1CCn2cc(c3ccccc32)C2=C(C(=O)NC2=O)c2cn(c3ccccc23)CCO1 [Ruboxistaurin] + N=C(N)NC(=N)NCCc1ccccc1 [Phenformin] (partner 250 µM)
Method in brief: as §1

| Cell Line | relative viability ([1]; first compound 0.08 µM) | relative viability ([1]; first compound 0.8 µM) | relative viability ([1]; first compound 2.53 µM) | relative viability ([1]; first compound 8 µM) | relative viability (Ruboxistaurin + AZD7762; first compound 0.08 µM) | relative viability (Ruboxistaurin + AZD7762; first compound 0.8 µM) | relative viability (Ruboxistaurin + AZD7762; first compound 2.53 µM) | relative viability (Ruboxistaurin + AZD7762; first compound 8 µM) | relative viability ([2]; first compound 0.08 µM) | relative viability ([2]; first compound 0.8 µM) | relative viability ([2]; first compound 2.53 µM) | relative viability ([2]; first compound 8 µM) | relative viability ([3]; first compound 0.08 µM) | relative viability ([3]; first compound 0.8 µM) | relative viability ([3]; first compound 2.53 µM) | relative viability ([3]; first compound 8 µM) | relative viability ([4]; first compound 0.08 µM) | relative viability ([4]; first compound 0.8 µM) | relative viability ([4]; first compound 2.53 µM) | relative viability ([4]; first compound 8 µM) |
| --- | --- | --- | --- | --- | --- | --- | --- | --- | --- | --- | --- | --- | --- | --- | --- | --- | --- | --- | --- | --- |
| HCC-366 | 1.12 | 0.988 | 1.02 | 1.01 | 0.187 | 0.284 | 0.27 | 0.178 | 0.536 | 0.326 | 0.373 | 0.226 | 0.564 | 0.526 | 0.624 | 0.52 | 0.666 | 0.572 | 0.629 | 0.664 |
| HCC-827 | 0.243 | 0.191 | 0.184 | 0.165 | 0.26 | 0.199 | 0.239 | 0.201 | 1.13 | 1.02 | 0.984 | 0.969 | 0.36 | 0.241 | 0.327 | 0.278 | 0.454 | 0.397 | 0.427 | 0.384 |
| HOP-62 | 0.995 | 0.978 | 0.997 | 1 | 0.779 | 0.694 | 0.875 | 0.894 | 0.932 | 1.08 | 0.992 | 1 | 0.746 | 0.628 | 0.634 | 0.673 | 0.681 | 0.65 | 0.704 | 0.839 |
| LC-2-ad | 1.1 | 0.889 | 1.02 | 1.02 | 0.882 | 0.807 | 0.862 | 0.813 | 0.779 | 0.785 | 0.846 | 0.783 | 0.672 | 0.651 | 0.575 | 0.558 | 0.621 | 0.574 | 0.615 | 0.572 |
| LCLC-97TM1 | 1.1 | – | 1.6 | 1.05 | 0.268 | 0.297 | 0.442 | 0.416 | 0.245 | – | 0.223 | 0.204 | 0.891 | 0.896 | 0.968 | 0.821 | 0.466 | 0.383 | 0.475 | 0.466 |
| LK-2 | 1.07 | 0.866 | 0.938 | 0.739 | 0.402 | 0.448 | 0.377 | 0.19 | 1.19 | 1.01 | 1 | 0.577 | 0.283 | 0.237 | 0.264 | 0.242 | 0.476 | 0.38 | 0.379 | 0.225 |
| LOU-NH91 | 0.785 | 0.72 | 0.851 | 0.698 | 0.823 | 0.74 | 0.792 | 0.726 | 0.846 | 0.666 | 0.705 | 0.676 | 0.612 | 0.503 | 0.56 | 0.528 | 0.827 | 0.666 | 0.722 | 0.751 |
